Results reported in PubChem BioAssay (NCI).
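Briefly, cells in 96-well plates were exposed to five compound concentrations for 48 h, and endpoints were estimated by linear interpolation. GI50 marks 50% less growth. TGI: total growth inhibition.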

What was measured:
Assay in all cases: growth of human tumour cells (NCI), 48 h
NCI-H460 lung = tested on: NCI-H460 lung
U251 CNS = tested on: U251 CNS
K-562 leukemia = tested on: K-562 leukemia
ACHN renal = tested on: ACHN renal
CCRF-CEM leukemia = tested on: CCRF-CEM leukemia
SK-MEL-5 melanoma = tested on: SK-MEL-5 melanoma
SR leukemia = tested on: SR leukemia
NCI/ADR-RES ovarian = tested on: NCI/ADR-RES ovarian
SF-539 CNS = tested on: SF-539 CNS
MDA-MB-231 breast = tested on: MDA-MB-231 breast
HS 578T breast = tested on: HS 578T breast
NCI-H522 lung = tested on: NCI-H522 lung
HCT-15 colon = tested on: HCT-15 colon
HT29 colon = tested on: HT29 colon
UACC-62 melanoma = tested on: UACC-62 melanoma
COLO 205 colon = tested on: COLO 205 colon
BT-549 breast = tested on: BT-549 breast
SK-MEL-2 melanoma = tested on: SK-MEL-2 melanoma
HOP-92 NSCLC = tested on: HOP-92 NSCLC
OVCAR-3 ovarian = tested on: OVCAR-3 ovarian
EKVX NSCLC = tested on: EKVX NSCLC
RXF 393 renal = tested on: RXF 393 renal
PC-3 prostate = tested on: PC-3 prostate
786-0 renal = tested on: 786-0 renal
SW-620 colon = tested on: SW-620 colon
HL-60(TB) leukemia = tested on: HL-60(TB) leukemia
SNB-75 CNS = tested on: SNB-75 CNS
MOLT-4 leukemia = tested on: MOLT-4 leukemia
OVCAR-8 ovarian = tested on: OVCAR-8 ovarian
SK-OV-3 ovarian = tested on: SK-OV-3 ovarian
SF-295 CNS = tested on: SF-295 CNS
MDA-MB-435 = tested on: MDA-MB-435
SF-268 CNS = tested on: SF-268 CNS
A549 NSCLC = tested on: A549 NSCLC
HCC-2998 colon = tested on: HCC-2998 colon
OVCAR-4 ovarian = tested on: OVCAR-4 ovarian
M14 melanoma = tested on: M14 melanoma
UACC-257 melanoma = tested on: UACC-257 melanoma
SNB-19 CNS = tested on: SNB-19 CNS
HCT-116 colon = tested on: HCT-116 colon
CAKI-1 renal = tested on: CAKI-1 renal
A498 renal = tested on: A498 renal
T-47D breast = tested on: T-47D breast
RPMI-8226 leukemia = tested on: RPMI-8226 leukemia
MCF7 breast = tested on: MCF7 breast
KM12 colon = tested on: KM12 colon
OVCAR-5 ovarian = tested on: OVCAR-5 ovarian
SK-MEL-28 melanoma = tested on: SK-MEL-28 melanoma
NCI-H226 lung = tested on: NCI-H226 lung
IGROV1 ovarian = tested on: IGROV1 ovarian
SN12C renal = tested on: SN12C renal
TK-10 renal = tested on: TK-10 renal
HOP-62 NSCLC = tested on: HOP-62 NSCLC
DU-145 prostate = tested on: DU-145 prostate
LOX IMVI melanoma = tested on: LOX IMVI melanoma
NCI-H23 lung = tested on: NCI-H23 lung
UO-31 renal = tested on: UO-31 renal

COc1ccc2cn3c4ccc(O)cc4[nH]c(=O)c3c2c1
GI50 (NCI-H460 lung): 0.114 µM | TGI (NCI-H460 lung): 10.8 µM | GI50 (U251 CNS): 0.153 µM | TGI (U251 CNS): 12.4 µM | GI50 (K-562 leukemia): 0.0516 µM | TGI (K-562 leukemia): 4.48 µM | GI50 (ACHN renal): 0.0762 µM | TGI (ACHN renal): 15.9 µM | GI50 (CCRF-CEM leukemia): 0.0845 µM | TGI (CCRF-CEM leukemia): 12.2 µM | GI50 (SK-MEL-5 melanoma): 0.0257 µM | TGI (SK-MEL-5 melanoma): 3.45 µM | GI50 (SR leukemia): 0.0556 µM | TGI (SR leukemia): 3.87 µM | GI50 (NCI/ADR-RES ovarian): 0.0675 µM | TGI (NCI/ADR-RES ovarian): 14.2 µM | GI50 (SF-539 CNS): 0.104 µM | TGI (SF-539 CNS): 12.5 µM | GI50 (MDA-MB-231 breast): 0.434 µM | TGI (MDA-MB-231 breast): 14.8 µM | GI50 (HS 578T breast): 0.249 µM | TGI (HS 578T breast): 31.6 µM | GI50 (NCI-H522 lung): 0.031 µM | TGI (NCI-H522 lung): 1.05 µM | GI50 (HCT-15 colon): 0.0438 µM | TGI (HCT-15 colon): 13.2 µM | GI50 (HT29 colon): 0.273 µM | TGI (HT29 colon): 2.85 µM | GI50 (UACC-62 melanoma): 0.58 µM | TGI (UACC-62 melanoma): 18.1 µM | GI50 (COLO 205 colon): 0.348 µM | TGI (COLO 205 colon): 2.87 µM | GI50 (BT-549 breast): 3.34 µM | TGI (BT-549 breast): 18.1 µM | GI50 (SK-MEL-2 melanoma): 0.0602 µM | TGI (SK-MEL-2 melanoma): 12.8 µM | GI50 (HOP-92 NSCLC): 11.6 µM | TGI (HOP-92 NSCLC): 25.8 µM | GI50 (OVCAR-3 ovarian): 0.0474 µM | TGI (OVCAR-3 ovarian): 7.08 µM | GI50 (EKVX NSCLC): 0.778 µM | TGI (EKVX NSCLC): 20.7 µM | GI50 (RXF 393 renal): 0.0447 µM | TGI (RXF 393 renal): 1.04 µM | GI50 (PC-3 prostate): 0.131 µM | TGI (PC-3 prostate): 16.9 µM | GI50 (786-0 renal): 0.278 µM | TGI (786-0 renal): 13.4 µM | GI50 (SW-620 colon): 0.047 µM | TGI (SW-620 colon): 13.7 µM | GI50 (HL-60(TB) leukemia): 0.111 µM | TGI (HL-60(TB) leukemia): 13 µM | GI50 (SNB-75 CNS): 0.162 µM | TGI (SNB-75 CNS): 18.5 µM | GI50 (MOLT-4 leukemia): 0.308 µM | TGI (MOLT-4 leukemia): 16.7 µM | GI50 (OVCAR-8 ovarian): 0.302 µM | TGI (OVCAR-8 ovarian): 18.1 µM | GI50 (SK-OV-3 ovarian): 0.0889 µM | TGI (SK-OV-3 ovarian): 13.9 µM | GI50 (SF-295 CNS): 0.129 µM | TGI (SF-295 CNS): 12.9 µM | GI50 (MDA-MB-435): 0.0248 µM | TGI (MDA-MB-435): 0.0692 µM | GI50 (SF-268 CNS): 0.217 µM | TGI (SF-268 CNS): 17.5 µM | GI50 (A549 NSCLC): 0.231 µM | TGI (A549 NSCLC): 18.1 µM | GI50 (HCC-2998 colon): 0.301 µM | TGI (HCC-2998 colon): 6.75 µM | GI50 (OVCAR-4 ovarian): 9.51 µM | TGI (OVCAR-4 ovarian): 23.3 µM | GI50 (M14 melanoma): 0.08 µM | TGI (M14 melanoma): 13.7 µM | GI50 (UACC-257 melanoma): 8.08 µM | TGI (UACC-257 melanoma): 24.2 µM | GI50 (SNB-19 CNS): 0.206 µM | TGI (SNB-19 CNS): 18.7 µM | GI50 (HCT-116 colon): 0.046 µM | TGI (HCT-116 colon): 1.95 µM | GI50 (CAKI-1 renal): 0.179 µM | TGI (CAKI-1 renal): 17 µM | GI50 (A498 renal): 0.404 µM | TGI (A498 renal): 17 µM | GI50 (T-47D breast): 0.573 µM | TGI (T-47D breast): 24.1 µM | GI50 (RPMI-8226 leukemia): 0.308 µM | TGI (RPMI-8226 leukemia): 7.93 µM | GI50 (MCF7 breast): 0.236 µM | TGI (MCF7 breast): 14.6 µM | GI50 (KM12 colon): 0.0846 µM | TGI (KM12 colon): 14.9 µM | GI50 (OVCAR-5 ovarian): 2.72 µM | TGI (OVCAR-5 ovarian): 21.5 µM | GI50 (SK-MEL-28 melanoma): 0.0742 µM | TGI (SK-MEL-28 melanoma): 17.3 µM | GI50 (NCI-H226 lung): 0.313 µM | TGI (NCI-H226 lung): 22.3 µM | GI50 (IGROV1 ovarian): 0.277 µM | TGI (IGROV1 ovarian): 17.3 µM | GI50 (SN12C renal): 0.267 µM | TGI (SN12C renal): 16.2 µM | GI50 (TK-10 renal): 2.19 µM | TGI (TK-10 renal): 8.08 µM | GI50 (HOP-62 NSCLC): 0.0864 µM | TGI (HOP-62 NSCLC): 17.3 µM | GI50 (DU-145 prostate): 0.298 µM | TGI (DU-145 prostate): 15.5 µM | GI50 (LOX IMVI melanoma): 0.101 µM | TGI (LOX IMVI melanoma): 4.93 µM | GI50 (NCI-H23 lung): 0.402 µM | TGI (NCI-H23 lung): 15.7 µM | GI50 (UO-31 renal): 0.456 µM | TGI (UO-31 renal): 15.1 µM
